Bounds are passed on as bounds.

Data set [1] concerns sodium channel. In words: Guanidine influx assay (14C-guanidine radiotracer flux, in vitro). In kind it is cell-based, human or rat. To be noted: guanidine influx assay using a known cell line that expresses a sodium channel; activity level class. In a few lines: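 Test agents at half-step dilutions around 1 μM are added to plated cells in low-sodium HEPES buffer, then an aconitine/14C-guanidine mixture; after ambient-temperature incubation, cells are washed and counted. IC50 comes from a sigmoidal fit.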

For data set [2], the target named is CYP3A4 (Homo sapiens, UniProt P08684). In words: Cytochrome P450 (CYP450) Inhibition Assay, CYP3A4 (Vivid fluorescence, BOMCC substrate). The conditions noted are these: human, P450 Baculosomes (recombinant CYP3A4), probe BOMCC (Vivid substrate).
Chain of CYP3A4 (P08684 whole entry): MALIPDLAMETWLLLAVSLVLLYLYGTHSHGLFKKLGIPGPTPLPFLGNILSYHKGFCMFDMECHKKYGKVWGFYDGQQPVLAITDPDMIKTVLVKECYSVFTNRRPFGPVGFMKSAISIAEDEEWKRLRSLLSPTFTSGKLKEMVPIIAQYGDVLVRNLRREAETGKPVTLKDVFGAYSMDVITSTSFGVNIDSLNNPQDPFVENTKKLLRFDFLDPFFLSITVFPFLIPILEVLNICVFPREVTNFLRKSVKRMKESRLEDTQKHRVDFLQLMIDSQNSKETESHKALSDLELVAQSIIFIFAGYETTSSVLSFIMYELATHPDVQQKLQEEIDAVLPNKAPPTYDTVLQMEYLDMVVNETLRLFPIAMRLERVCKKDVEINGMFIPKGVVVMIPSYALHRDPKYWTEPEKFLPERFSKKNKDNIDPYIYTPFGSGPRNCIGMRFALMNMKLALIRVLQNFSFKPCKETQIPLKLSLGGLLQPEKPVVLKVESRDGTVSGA

As a reminder, the IC50 is the concentration that inhibits the measured activity by half. For orientation: inhibition means the change of the read-out against control, counted positive when it falls. One may read the melting point as the temperature of the solid-liquid transition. Compound `CN1C(=O)C2(COc3cc4c(cc32)OCCO4)c2ccccc21` (stereo not drawn) [Example 5.22, 1′-methyl-2,3-dihydrospiro[furo[2,3-g][1,4]benzodioxine-8,3′-indol]-2′(1′H)-one] had a melting point of 152 to 154 °C. Further, the IC50 in data set [1] fell in the range of 1 to 100 nM. For the same compound, the inhibition at 10 µM in data set [2] is less than 50%.

`O=C1N(Cc2nc(C(F)(F)F)cs2)c2ccccc2C12COc1cc3c(cc12)OCCO3` (stereo not drawn) [Example 5.23, 1′-{[4-(trifluoromethyl)-1,3-thiazol-2-yl]methyl}-2,3-dihydrospiro[furo[2,3-g][1,4]benzodioxine-8,3′-indol]-2′(1′H)-one] had a melting point of 169 to 170 °C. Moreover, the IC50 in data set [1] lay in the range of 1 to 100 nM. Besides, the inhibition at 10 µM in data set [2] is greater than 50%.

Turning to `O=C1N(Cc2ncccn2)c2ccccc2C12COc1cc3c(cc12)OCCO3` (stereo not drawn) [Example 5.32, 1′-(pyrimidin-2-ylmethyl)-2,3-dihydrospiro[furo[2,3-g][1,4]-benzodioxine-8,3′-indol]-2′(1′H)-one], the melting point was 278 to 279 °C. For the same compound, the IC50 in data set [1] is 1 to 100 nM. Besides, the inhibition at 10 µM in data set [2] is less than 50%.

Regarding `COc1cc(OC)nc(CN2C(=O)C3(COc4cc5c(cc43)OCCO5)c3ccccc32)n1` (stereo not drawn) [Example 5.33, 1′-[(4,6-dimethoxypyrimidin-2-yl)methyl]-2,3-dihydrospiro[furo[2,3-g][1,4]benzodioxine-8,3′-indol]-2′(1′H)-one], the melting point is 169 to 170 °C. Further, the IC50 in data set [1] was 1 to 100 nM. The inhibition at 10 µM in data set [2] is greater than 50%.

With `COCCOc1ccc2c(c1)OCC21C(=O)N(Cc2ccccn2)c2ccccc21` (stereo not drawn) [Example 5.34, 6-(2-methoxyethoxy)-1′-(pyridin-2-ylmethyl)spiro[1-benzofuran-3,3′-indol]-2′(1′H)-one], the melting point lay within 94 to 95 °C. Further, in data set [1], the IC50 fell in the range of 100 to 1000 nM. Moreover, the inhibition at 10 µM in data set [2] is less than 50%.

In the case of `COCCOc1ccc2c(c1)C1(CO2)C(=O)N(Cc2ccccn2)c2ccccc21` (stereo not drawn) [Example 5.35, 5-(2-methoxyethoxy)-1′-(pyridin-2-ylmethyl)spiro[1-benzofuran-3,3′-indol]-2′(1′H)-one], the melting point fell in the range of 140 to 142 °C. Besides, the IC50 in data set [1] lay in the range of 100 to 1000 nM. Besides, in data set [2], the inhibition at 10 µM was less than 50%.

As for `O=C1N(Cc2ccccn2)c2ccccc2C12COc1c2ccc2c1OCCO2` (stereo not drawn) [Example 5.36, 1-(pyridin-2-ylmethyl)-2,3-dihydrospiro[furo[2,3-f][1,4]benzodioxine-7,3′-indol]-2′(1′H)-one], the melting point fell in the range of 205 to 206 °C. Also, the IC50 in data set [1] lay within 100 to 1000 nM. In data set [2], the inhibition at 10 µM was less than 50%.

`O=C1N(Cc2ncccc2C(F)(F)F)c2ccccc2C12COc1c2ccc2c1OCCO2` (stereo not drawn) [Example 5.37, 1′-{[3-(trifluoromethyl)pyridin-2-yl]methyl}-2,3-dihyrospiro[furo[2,3-f][1,4]benzodioxine-7,3′-indol]-2′(1′H)-one] showed a melting point of 206 to 207 °C. Moreover, in data set [1], the IC50 fell in the range of 100 to 1000 nM. In addition, the inhibition at 10 µM in data set [2] was less than 50%.

In turn, `O=C1N(Cc2cc(=O)[nH]c(=O)[nH]2)c2ccccc2C12COc1cc3c(cc12)OCO3` (stereo not drawn) [Example 5.38, 6-[(2′-oxospiro[furo[2,3-f][1,3]benzodioxole-7,3′-indol]-1′(2′H)-yl)methyl]pyrimidine-2,4(1H,3H)-dione] registered a melting point greater than 300 °C. The IC50 in data set [1] is 1000 to 10000 nM. In addition, in data set [2], the inhibition at 10 µM is less than 50%.

In turn, `O=C1N(Cc2nsc(Cl)n2)c2ccccc2C12COc1cc3c(cc12)OCO3` (stereo not drawn) [Example 6, 1′-[(5-chloro-1,2,4-thiadiazol-3-yl)methyl]spiro[furo[2,3-f][1,3]benzodioxole-7,3′-indol]-2′(1′H)-one] registered a melting point of 114 to 116 °C. Besides, the IC50 in data set [1] lay within 1 to 100 nM. Further, the inhibition at 10 µM in data set [2] is greater than 50%.

Compound `O=C1N(Cc2nsc(Cl)n2)c2cccc(Cl)c2C12COc1cc3c(cc12)OCO3` (stereo not drawn) [Example 6.1, 4′-chloro-1′-[(5-chloro-1,2,4-thiadiazol-3-yl)methyl]spiro[furo[2,3-f][1,3]benzodioxole-7,3′-indol]-2′(1′H)-one] showed a melting point of 174 to 176 °C. For the same compound, the IC50 in data set [1] lay within 1 to 100 nM. In data set [2], the inhibition at 10 µM was greater than 50%.

As for `O=C1N(Cc2sccc2Cl)c2ccccc2C12COc1cc3c(cc12)OCO3` (stereo not drawn) [Example 6.3, 1′-[(3-chlorothiophen-2-yl)methyl]spiro[furo[2,3-f][1,3]benzodioxole-7,3′-indol]-2′(1′H)-one], the melting point was in the range of 161 to 163 °C. In addition, the IC50 in data set [1] lay in the range of 1 to 100 nM. In addition, in data set [2], the inhibition at 10 µM was greater than 50%.

In turn, `Cc1onc(-c2c(Cl)cccc2Cl)c1CN1C(=O)C2(COc3cc4c(cc32)OCO4)c2ccccc21` (stereo not drawn) [Example 6.4, 1′-{[3-(2,6-dichlorophenyl)-5-methylisoxazol-4-yl]methyl}spiro[furo[2,3-f][1,3]benzodioxole-7,3′-indol]-2′(1′H)-one] came in with a melting point of 190 to 192 °C. Moreover, the IC50 in data set [1] lay within 1000 to 10000 nM. Besides, the inhibition at 10 µM in data set [2] was greater than 50%.

`O=C1N(Cc2csc(-c3ccc(C(F)(F)F)cc3)n2)c2ccccc2C12COc1cc3c(cc12)OCO3` (stereo not drawn) [Example 6.5, 1′-({2-[4-(trifluoromethyl)phenyl]-1,3-thiazol-4-yl}methyl)spiro[furo[2,3-f][1,3]benzodioxole-7,3′-indol]-2′(1′H)-one] registered a melting point of 151 to 153 °C. The IC50 in data set [1] lay within 100 to 1000 nM. In data set [2], the inhibition at 10 µM is greater than 50%.

Regarding `O=C1N(Cc2nnc(-c3ccccc3)o2)c2ccccc2C12COc1cc3c(cc12)OCO3` (stereo not drawn) [Example 6.6, 1′-[(5-phenyl-1,3,4-oxadiazol-2-yl)methyl]spiro[furo[2,3-f][1,3]benzodioxole-7,3′-indol]-2′(1′H)-one], the melting point is 158 to 160 °C. Also, the IC50 in data set [1] is 100 to 1000 nM. The inhibition at 10 µM in data set [2] was greater than 50%.

In turn, `O=C1N(Cc2nnc(-c3ccc(Cl)cc3)o2)c2ccccc2C12COc1cc3c(cc12)OCO3` (stereo not drawn) [Example 6.7, 1′-{[5-(4-chlorophenyl)-1,3,4-oxadiazol-2-yl]methyl}spiro[furo[2,3-f][1,3]benzodioxole-7,3′-indol]-2′(1′H)-one] registered a melting point of 161 to 162 °C. In addition, the IC50 in data set [1] is 100 to 1000 nM. The inhibition at 10 µM in data set [2] is greater than 50%.

In turn, `O=C1N(Cc2nc3ncccc3o2)c2ccccc2C12COc1cc3c(cc12)OCO3` (stereo not drawn) [Example 6.8, 1′-([1,3]oxazolo[4,5-b]pyridin-2-ylmethyl)spiro[furo[2,3-f][1,3]benzodioxole-7,3′-indol]-2′(1′H)-one] had a melting point of 202 to 204 °C. Also, the IC50 in data set [1] lay within 1 to 100 nM. The inhibition at 10 µM in data set [2] is less than 50%.

`O=C1N(Cc2cccc(C(F)(F)F)c2)c2ccccc2C12COc1cc3c(cc12)OCCO3` (stereo not drawn) [Example 7.1, 1′-[3-(trifluoromethyl)benzyl]-2,3-dihydrospiro[furo[2,3-g][1,4]benzodioxine-8,3′-indol]-2′(1′H)-one] had a melting point of 131 to 134 °C. The IC50 in data set [1] is 1 to 100 nM. In addition, the inhibition at 10 µM in data set [2] was less than 50%.

Turning to `COC(=O)c1ccc(CN2C(=O)C3(COc4cc5c(cc43)OCCO5)c3ccccc32)o1` (stereo not drawn) [Example 7.2, methyl 5-[(2′-oxo-2,3-dihydrospiro[furo[2,3-g][1,4]benzodioxine-8,3′-indol]-1′(2′H)-yl)methyl]furan-2-carboxylate], the melting point was 88 to 92 °C. Also, in data set [1], the IC50 was in the range of 1 to 100 nM. Also, in data set [2], the inhibition at 10 µM was greater than 50%.

Consider `O=C1N(C[C@H]2COCCO2)c2ccccc2C12COc1cc3c(cc12)OCO3` (stereo partly drawn) [Example 8, 1′-[(2S)-1,4-dioxan-2-ylmethyl]spiro[furo[2,3-f][1,3]benzodioxole-7,3′-indol]-2′(1′H)-one], for which the melting point was 147 to 149 °C. In addition, the IC50 in data set [1] was in the range of 1 to 100 nM. Moreover, the inhibition at 10 µM in data set [2] was greater than 50%.

With `O=C1N(C[C@H]2CCCO2)c2c(Cl)cccc2C12COc1cc3c(cc12)CCO3` (stereo partly drawn) [Example 8.1, 7′-chloro-1′-[(2R)-tetrahydrofuran-2-ylmethyl]-5,6-dihydrospiro[benzo[1,2-b:5,4-b′]difuran-3,3′-indol]-2′(1′H)-one], the melting point fell in the range of 192 to 193 °C. Further, the IC50 in data set [1] lay in the range of 100 to 1000 nM. For the same compound, in data set [2], the inhibition at 10 µM is less than 50%.

`Cc1ccc(F)c2c1N(C[C@H]1CCCO1)C(=O)C21COc2cc3c(cc21)CCO3` (stereo partly drawn) [Example 8.3, 4′-fluoro-7′-methyl-1′-[(2R)-tetrahydrofuran-2-ylmethyl]-5,6-dihydrospiro[benzo[1,2-b:5,4-b′]difuran-3,3′-indol]-2′(1′H)-one] came in with a melting point of 175 to 176 °C. For the same compound, the IC50 in data set [1] fell in the range of 1 to 100 nM. The inhibition at 10 µM in data set [2] was greater than 50%.

As to `O=C1N(C[C@@H]2COCCO2)c2ccccc2[C@@]12COc1cc3c(cc12)OCCO3` [Example 8.5, (8R)-1′-[(2R)-1,4-dioxan-2-ylmethyl]-2,3-dihydrospiro[furo[2,3-g][1,4]benzodioxine-8,3′-indol]-2′(1′H)-one], the melting point lay within 198 to 199 °C. For the same compound, the IC50 in data set [1] fell in the range of 1000 to 10000 nM. In addition, the inhibition at 10 µM in data set [2] is less than 50%.

In the case of `O=C1N(C[C@H]2CCCO2)c2ccccc2C12COc1cc3c(cc12)OCC3` (stereo partly drawn) [Example 8.9, 1′-[(2R)-tetrahydrofuran-2-ylmethyl]-6,7-dihydrospiro[benzo[1,2-b:4,5-b′]difuran-3,3′-indol]-2′(1′H)-one], the melting point was 162 to 164 °C. Further, the IC50 in data set [1] lay within 100 to 1000 nM. The inhibition at 10 µM in data set [2] was less than 50%.

Compound `O=C1N(C[C@@H]2COCCO2)c2ccccc2C12COc1cc3c(cc12)OCC3` (stereo partly drawn) [Example 8.10, 1′-[(2R)-1,4-dioxan-2-ylmethyl]-6,7-dihydrospiro[benzo[1,2-b:4,5-b′]difuran-3,3′-indol]-2′(1′H)-one] registered a melting point of 162 to 164 °C. Moreover, the IC50 in data set [1] lay within 100 to 1000 nM. Besides, the inhibition at 10 µM in data set [2] was less than 50%.

The values above are taken from patent US8263606B2 (Xenon Pharmaceuticals Inc., priority 2008, dated 2012).
